The subject of one assay is EBNA. Nature of the assay: Immunoblot of WI-L2 whole cell extracts with rabbit antipeptide antisera, blocking by polypeptide. The note with it: serum 1:10, 40 ug/ml polypeptide P62, one hour. The class given is binding, Epstein-Barr virus. As to the method: Exemplary receptor molecules containing antibody combining sites of this invention raised in rabbits to the polypeptides shown in Table 1 were studied using the immunoblotting procedures of Towbin, et. al., Proc. Natl. Acad. Sci., U.S.A., 76:4350-4354 (1979) and Billings, et. al., Proc. Natl. Acad. Sci., U.S.A., 80:7104-7108 (1983). Further details are provided in the Materials and Methods section (III).
Extracts of EBNA producing and non-producing (control) cells were prepared to determine if receptor molecules of this invention were useful for diagnosing EBNA expression. Cells from cultures described hereinabove were washed in phosphate-buffered saline (PBS; 150 mM NaCl, 10 mM sodium phosphate, pH 7.4) containing 0.2 mM phenylmethylsulfonyl fluoride, swollen for 5 minutes in reticulocyte standard buffer (RSB; 10 mM NaCl, 10 mM Tris-HCl, pH 7.4, 1.5 mM MgCl2, 0.2 mM phenylmethylsulfonyl fluoride), and lysed by sonication in 3-5 volumes of RBS adjusted to 0.2-0.35 molar (M) NaCl. After 30 minutes on ice, the sonicate was centrifuged at 10,000×g for 15 minutes to remove cellular debris.
Cell extracts obtained above were assayed for EBNA using human sera known to contain anti-EBNA antibodies or exemplary receptor molecules of this invention. The extracts were either concentrated by precipitation with 2 volumes of ethanol at -20 degrees C. for about 18 hours, and were then dissolved in sample buffer [SB; 10% glycerol, 2% 2-mercaptoethanol, 1% sodium dodecyl sulfate (SDS), 0.002% bromphenol blue, 40 mM Tris-HCl (pH 7.4)] or diluted 1:6 in sample buffer for SDS-polyacrylamide gel electrophoresis (SDS-PAGE). 7.5% Polyacrylamide gels were cast and run according to the procedure of Laemmli, Nature, […] (1970), applying 50 to 200 micrograms of total protein per lane. […]
Anti-peptide antibodies bound to EBNA protein were detected by reacting the blots with an indicating means. […]
(In general: A western blot detects proteins with antibodies after separation by electrophoresis.)

The test system of assay [1] is anti-EBNA antibodies (IgM, IgG). To be noted: 405 nanometer.
Source text: To differentiate the class of immunoglobulin predominantly responsible for an individual's immune response at a given time during the course of infectious mononucleosis, secondary (indicating) antibodies specific for human IgG or IgM were used in the ELISA as described in the Methods and Materials section (III).
Briefly, microtiter wells (Costar, #3590, Cambridge, MA) were typically coated with individual polypeptides as antigens by adding 100 microliters (ul) of BBS [10 millimoler (mM) sodium borate (pH 8.3), 150 mM NaCl] containing polypeptide at a concentration of 10 micrograms per milliliter (ug/ml). Contact between the wells and antigen-containing solution was maintained for a predetermined time, typically 15 minutes, and at 20 degrees C., to form an antigen-coated solid phase. The solid and liquid phases were separated and the wells were washed three times with BBS.
Non-specific binding sites were blocked by admixing 200 microliters of 1% bovine serum albumin (BSA) in each well to form another solid/liquid phase admixture, and maintaining that solid/liquid phase admixture for 30 minutes, at 20 degrees C. The phases were separated and excess, unbound BSA was removed by washing three times with BBS.
Rabbit and human sera (body sample aliquots) were assayed for anti-polypeptide activity by adding 100 microliters of a serum diluted 1:20 in BBS per well to form a solid/liquid phase composition. Contact between the diluted sera and the antigen-coated solid phase was maintained for a predetermined time such as 1 hour, and at 20 degrees C., for an immunoreactant to form. The solid and liquid phases were separated, and the solid phase; i.e., antigen-coated, immunoreactant-containing wells, was then washed three times with BBS.
The antibodies in human sera that immunoreacted with an adsored polypeptide were detected using an indicating means comprising alkaline phosphatase-conjugated goat anti-human Ig antibody (Tago, Burlington, Calif.). The antibodies in rabbit sera that immunoreacted with an adsorbed polypeptide were detected using an indicating means comprising alkaline phosphatase-conjugated goat anti-rabbit Ig antibody (Kirkegard & Perry Laboratories, Inc., Gaithersburg, MD). In either instance, 100 microliters of the indicating antibody diluted 1:300 in BBS were added per well to form a further solid/liquid phase composition. This solid-liquid phase composition was maintained for a predetermined time, one hour, for the formation of a reaction product between the human antibodies bound to the solid phase and the indicating means, and at 20 degrees C. The phases were separated, and the solid phase was washed 3 times with BBS.
Alkaline phosphatase-conjugated antibody bound to polypeptide specific antibody was detected by spectrophotometrically measuring the enzymatic hydrolysis of p-nitrophenyl phosphate to p-nitrophenol. Briefly, 100 microliters of p-nitrophenyl phosphate [1 milligram per milliliter in 2 mM MgCl 2, (pH 9.8), 50 mM sodium carbonate] were added to each well. The enzymatic reaction was allowed to proceed 1 hour and then the optical density at 405 nm was determined in a [sequence] spectrophotometer available from Flow Laboratories, Inglewood, Calif.
[2] abbreviates: Patient 15, 1 Month after infection.
[3] abbreviates: Patient 15, 1 Week after infection.
Setting [4] is: Patient 15, 3 Months after infection.
Where [5] appears, read: Patient 15, 12 Months after infection.
[6] abbreviates: Patient 15, 21 Months after infection.
Where [7] appears, read: Patient three, 1 Month after infection.
The mark [8] stands for this setting: Patient three, 1 Week after infection.
[9] abbreviates: Patient three, 3 Months after infection.
Where [10] appears, read: Patient three, 21 Months after infection.

From patent US5122448A, “Assay of anti-Epstein-Barr virus nuclear antigen antibodies with synthetic polypeptides” (Scripps Clinic and Research Foundation, priority 1990, dated 1992) come the findings set out here.

Read-outs that look alike come from different tables or passages of the source. Residues, ends and D or L forms follow the SMILES beside them.

`C[C@H](N)C(=O)NCC(=O)N[C@@H](C)C(=O)NCC(=O)NCC(=O)NCC(=O)N[C@@H](C)C(=O)NCC(=O)NCC(=O)N[C@@H](C)C(=O)NCC(=O)N[C@@H](C)C(=O)NCC(=O)NCC(=O)NCC(=O)N[C@@H](C)C(=O)NCC(=O)NCC(=O)N[C@@H](C)C(=O)NCC(=O)O` [Polypeptide P62, H--Ala--Gly--Ala--Gly--Gly--Gly--Ala--Gly--Gly--Ala--Gly--Ala--Gly--Gly--Gly--Ala--Gly--Gly--Ala--Gly--OH] (H-AGAGGGAGGAGAGGGAGGAG-OH): the “Recognition of EBNA by anti-P62 serum after preincubation with polypeptide” value with EBNA is given as “inhibited”. In addition, the IgG antipeptide activity was determined as 118 Optical density in assay [1] (setting [2]); 113 Optical density in assay [1] (setting [3]); 118 Optical density in assay [1] (setting [4]); 375 Optical density in assay [1] (setting [5]); 994 Optical density in assay [1] (setting [6]); 37 Optical density in assay [1] (setting [7]). Further, the IgG antipeptide activity in assay [1] (setting [8]) is listed as 80 Optical density; in assay [1] (setting [9]), 60 Optical density; in assay [1] (setting [10]) it was 600 Optical density; in assay [1] (Patient three, Pre Infection), 74 Optical density. The IgM antipeptide activity in assay [1] (setting [2]) is 225 Optical density; in assay [1] (setting [3]), 152 Optical density; in assay [1] (setting [4]), 208 Optical density; in assay [1] (setting [5]), 249 Optical density; in assay [1] (setting [6]), 185 Optical density; in assay [1] (setting [7]), 87 Optical density. Besides, the IgM antipeptide activity in assay [1] (setting [8]) was 245 Optical density; in assay [1] (setting [9]), 136 Optical density; in assay [1] (setting [10]), 145 Optical density; in assay [1] (Patient three, Pre Infection), 103 Optical density.
